Test results taken from patent US20250171420A1 (Monte Rosa Therapeutics, Inc., priority 2022, published 2025).
pIC50: −log10 of the molar value. Where two headings read alike, the source gives them in different places.

Experiments:
LS174T cell line = assay: Growth inhibition, CyQUANT Direct Cell Proliferation Assay, LS174T; format: cell-based; conditions: Homo sapiens
Description: (§1) SKCO1, LS180, and LS174T cell lines were purchased from ATCC. CW2 cell line was purchased from Riken. GP2D cell line was purchased from Sigma/ECACC. All cell lines were cultured in manufacturer's recommended media at 37° C., 5% CO2. Briefly, cells were suspended in 200 μL of media and seeded at 300 to 1,800 cells per well in tissue culture treated 96-well plates with black walls and clear bottom. Plates were incubated overnight and initial (To) read was performed the following day using CyQUANT Direct Cell Proliferation Assay Kit (Thermo Fisher Scientific) according to manufacturer's protocol. All compounds were solubilized in DMSO and prepared at 3-fold serial dilution, using 9 points starting at 30 μM as highest concentration, administered to cells and incubated for 120 to 168 hours, at which point CyQUANT assay measurement was performed using Acumen Cellista instrument (Ex/Em 480/520 nm). Media-only wells were used as blank, and 0.3% DMSO was used as DMSO-treated cell control. Growth inhibition (percent response) was calculated using the following formula in Excel: “=if ([Compound treated Day N]>[Untreated Day 0, AVG], ([Compound treated Day N]−[Untreated Day 0, AVG])/([Untreated Day N]−[Untreated Day 0, AVG])*100, ([Compound Treated Day N]−[Untreated Day 0, AVG])/([Untreated Day 0, AVG])*100)”. GI50 is the response corresponding to the 50% of untreated control.
(§2) GI50 data are reported in Tables 4a, 4b, 4c, 4d, and 4e for compounds in Table 1. In Tables 4a, 4b, 4c, 4d, and 4e below, According to the code, A represents a GI50 value of ≤0.1 μM, B represents a GI50 value>0.1 μM and ≤1 μM, C represents an GI50 value>1 μM.

GP2D cell line = assay: Growth inhibition, CyQUANT Direct Cell Proliferation Assay, GP2D; format: cell-based
Description: as §1, §2

CK1α = target: T1, CK1α (Homo sapiens, UniProt P48729); assay: CK1α NanoBit Assay (HiBiT-tagged CSNK1A1, HEK293 clonal lines); format: cell-based; conditions: HEK293 HiBiT-CSNK1A1/LgBiT cells, 24 h incubation
T1 construct: HEK293 clonal lines with CRISPR KI HiBiT tag on CSNK1A1
How it was run: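 HEK293 clones carrying a CRISPR knock-in HiBiT tag on CSNK1A1 and stably expressing LgBiT are treated with compound for 24 hours at 37° C, 5% CO2, then read by luminescence. Response is normalized as 100*(S−N)/(P−N) against plate negative and positive controls, and DC50 values are derived.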

LS180 cell line = assay: Growth inhibition, CyQUANT Direct Cell Proliferation Assay, LS180; format: cell-based; conditions: Homo sapiens
Description: as §1, §2

CRBN/DDB1 = CRBN/DDB1 (Homo sapiens, UniProt Q96SW2); assay: HTRF binding assay (displacement of Cy5-thalidomide probe from CRBN/DDB1); conditions: CRBN/DDB1 2.5 nM, Cy5-Thalidomide 100 nM, 30 min; geometric mean; read-out: HTRF_Thali_Disp_DR_geo_IC50
How it was run: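 Compounds in a 10-point threefold dilution series were incubated 30 min at ambient temperature with 2.5 nM CRBN/DDB1, 100 nM Cy5-thalidomide probe and terbium anti-His donor (HEPES/NaCl/TCEP/EDTA/Tween20 buffer). IC50 came from 4-parameter fits of the 665/620 nm HTRF ratio; Ki used Cheng-Prusoff on geometric-mean IC50.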

CW2 cell line = assay: Growth inhibition, CyQUANT Direct Cell Proliferation Assay, CW2; format: cell-based; conditions: Homo sapiens
Description: as §1, §2

SKCO1 cell line = assay: Growth inhibition, CyQUANT Direct Cell Proliferation Assay, SKCO1; format: cell-based; conditions: Homo sapiens
Description: as §1, §2

[1] = 120 to 168 hours, read-out: LS174T GI50
[2] = GP2D, 120 to 168 hours, read-out: GP2D GI50
[3] = LS180, 120 to 168 hours, read-out: LS180 GI50
[4] = CW-2, CW2, 120 to 168 hours, read-out: CW2 GI50
[5] = SK-CO-1, SKCO1, 120 to 168 hours, read-out: SKCO1 GI50
[6] = LS180, read-out: LS180 GI50 (μM)
[7] = SK-CO-1, read-out: SKCO1 GI50 (μM)

Chain of CRBN/DDB1 (Q96SW2 whole entry, species assumed): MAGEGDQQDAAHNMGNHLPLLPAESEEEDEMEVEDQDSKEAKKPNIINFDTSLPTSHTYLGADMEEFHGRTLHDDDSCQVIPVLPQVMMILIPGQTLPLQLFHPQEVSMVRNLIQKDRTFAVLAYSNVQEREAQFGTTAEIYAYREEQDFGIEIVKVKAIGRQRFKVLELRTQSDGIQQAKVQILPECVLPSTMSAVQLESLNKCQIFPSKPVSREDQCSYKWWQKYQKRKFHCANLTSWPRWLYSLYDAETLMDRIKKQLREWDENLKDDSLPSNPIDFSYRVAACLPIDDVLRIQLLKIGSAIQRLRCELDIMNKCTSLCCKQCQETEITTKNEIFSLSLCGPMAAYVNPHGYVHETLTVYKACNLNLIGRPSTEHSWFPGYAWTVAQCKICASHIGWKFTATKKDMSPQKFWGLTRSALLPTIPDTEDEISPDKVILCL
Chain of CRBN/DDB1 (Q16531 whole entry partner, species assumed): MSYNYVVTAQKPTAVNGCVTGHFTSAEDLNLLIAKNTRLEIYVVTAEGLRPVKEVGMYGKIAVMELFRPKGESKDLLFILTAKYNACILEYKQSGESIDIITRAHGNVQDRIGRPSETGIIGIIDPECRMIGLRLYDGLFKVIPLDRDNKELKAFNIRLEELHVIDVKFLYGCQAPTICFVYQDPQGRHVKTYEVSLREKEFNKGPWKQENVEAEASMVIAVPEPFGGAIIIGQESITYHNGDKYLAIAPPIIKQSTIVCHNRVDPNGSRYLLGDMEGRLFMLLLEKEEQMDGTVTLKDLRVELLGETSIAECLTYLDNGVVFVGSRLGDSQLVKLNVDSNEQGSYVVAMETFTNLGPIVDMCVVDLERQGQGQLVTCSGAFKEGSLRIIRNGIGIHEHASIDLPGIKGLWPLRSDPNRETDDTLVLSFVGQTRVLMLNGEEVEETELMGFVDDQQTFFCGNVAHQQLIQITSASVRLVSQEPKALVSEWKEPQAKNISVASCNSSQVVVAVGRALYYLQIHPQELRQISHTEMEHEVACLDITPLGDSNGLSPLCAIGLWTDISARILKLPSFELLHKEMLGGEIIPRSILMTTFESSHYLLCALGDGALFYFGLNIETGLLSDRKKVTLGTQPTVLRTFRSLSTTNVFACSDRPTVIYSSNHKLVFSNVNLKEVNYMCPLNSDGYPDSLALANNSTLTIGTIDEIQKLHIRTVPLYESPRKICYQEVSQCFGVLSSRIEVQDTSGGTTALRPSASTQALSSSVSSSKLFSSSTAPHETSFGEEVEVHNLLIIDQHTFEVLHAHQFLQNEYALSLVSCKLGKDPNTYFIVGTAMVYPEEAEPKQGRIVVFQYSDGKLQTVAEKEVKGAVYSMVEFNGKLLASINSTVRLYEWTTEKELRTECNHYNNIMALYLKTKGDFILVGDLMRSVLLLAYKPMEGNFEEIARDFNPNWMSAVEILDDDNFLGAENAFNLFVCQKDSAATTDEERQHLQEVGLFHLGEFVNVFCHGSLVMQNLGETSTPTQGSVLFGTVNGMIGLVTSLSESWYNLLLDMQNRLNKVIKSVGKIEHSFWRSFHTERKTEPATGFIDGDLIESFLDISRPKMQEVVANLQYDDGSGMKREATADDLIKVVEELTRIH
T1 sequence (P48729 whole entry): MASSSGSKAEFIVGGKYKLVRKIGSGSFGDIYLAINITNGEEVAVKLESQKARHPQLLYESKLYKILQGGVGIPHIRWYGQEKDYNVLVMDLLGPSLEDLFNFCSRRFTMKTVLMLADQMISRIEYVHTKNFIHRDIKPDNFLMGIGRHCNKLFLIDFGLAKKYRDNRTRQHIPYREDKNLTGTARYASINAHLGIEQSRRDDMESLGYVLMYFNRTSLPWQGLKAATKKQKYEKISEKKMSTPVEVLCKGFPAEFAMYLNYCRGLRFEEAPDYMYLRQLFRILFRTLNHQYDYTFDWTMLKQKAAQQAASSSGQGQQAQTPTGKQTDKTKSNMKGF
T1 sequence (Q96SW2 whole entry, further chain): as the sequence (Q96SW2 whole entry, species assumed) above
T1 sequence (Q16531 2-1140 partner limits assumed): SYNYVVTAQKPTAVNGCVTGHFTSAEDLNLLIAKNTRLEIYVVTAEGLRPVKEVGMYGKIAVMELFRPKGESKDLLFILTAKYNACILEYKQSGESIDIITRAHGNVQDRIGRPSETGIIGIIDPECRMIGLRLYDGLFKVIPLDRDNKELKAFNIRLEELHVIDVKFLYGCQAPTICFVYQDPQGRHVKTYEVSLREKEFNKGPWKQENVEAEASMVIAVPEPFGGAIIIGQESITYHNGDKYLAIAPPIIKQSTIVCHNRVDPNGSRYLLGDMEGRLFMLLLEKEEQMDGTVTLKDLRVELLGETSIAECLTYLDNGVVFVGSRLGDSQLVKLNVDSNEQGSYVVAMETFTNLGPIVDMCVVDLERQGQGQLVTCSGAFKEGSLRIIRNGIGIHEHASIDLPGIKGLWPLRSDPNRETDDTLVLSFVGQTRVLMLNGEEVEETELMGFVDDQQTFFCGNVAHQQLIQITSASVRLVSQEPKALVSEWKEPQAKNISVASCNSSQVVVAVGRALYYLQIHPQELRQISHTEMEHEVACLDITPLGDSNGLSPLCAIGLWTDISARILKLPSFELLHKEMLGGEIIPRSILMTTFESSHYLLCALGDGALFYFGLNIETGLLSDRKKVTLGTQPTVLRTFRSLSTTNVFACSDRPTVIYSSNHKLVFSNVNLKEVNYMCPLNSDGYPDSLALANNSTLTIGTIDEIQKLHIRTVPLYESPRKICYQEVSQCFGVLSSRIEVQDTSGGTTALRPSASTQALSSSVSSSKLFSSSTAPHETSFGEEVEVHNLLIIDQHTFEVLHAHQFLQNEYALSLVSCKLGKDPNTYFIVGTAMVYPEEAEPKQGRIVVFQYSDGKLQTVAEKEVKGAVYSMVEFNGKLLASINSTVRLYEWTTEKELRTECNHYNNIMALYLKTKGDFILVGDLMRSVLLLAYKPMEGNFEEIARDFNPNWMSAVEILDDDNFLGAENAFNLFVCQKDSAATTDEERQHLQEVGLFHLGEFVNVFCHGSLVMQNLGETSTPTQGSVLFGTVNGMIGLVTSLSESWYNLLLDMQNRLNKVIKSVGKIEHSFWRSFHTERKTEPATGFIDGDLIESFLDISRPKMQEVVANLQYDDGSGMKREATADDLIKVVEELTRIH

Row | Compound | GI50 (LS174T cell line; [1]) | GI50 (GP2D cell line; [2]) | DC50 (CK1α) | GI50 (LS180 cell line; [3]) | pIC50 (CRBN/DDB1) | GI50 (CW2 cell line; [4]) | GI50 (SKCO1 cell line; [5]) | GI50 (LS174T cell line; read-out: LS174T GI50 (μM)) | GI50 (GP2D cell line; GP2d, read-out: GP2D GI50 (μM)) | GI50 (LS180 cell line; [6]) | GI50 (CW2 cell line; CW-2, read-out: CW2 GI50 (μM)) | GI50 (SKCO1 cell line; [7])
1 | CC1CN(C(=O)Nc2ccc3c(c2)CN(C2CCC(=O)NC2=O)C3=O)c2ccccc21 (stereo in doubt) [Compound 283, (3R)—N-(2-(2,6-dioxopiperidin-3-yl)-1-oxoisoindolin-5-yl)-3-methylindoline-1-carboxamide] | 0.1 to 1 µM | < 0.1 µM | < 0.1 µM | 0.1 to 1 µM | 6.00 to 7.00 | 0.1 to 1 µM | < 0.1 µM |  |  |  |  | 
2 | COC[C@@H]1Cc2ccccc2N1C(=O)Nc1ccc2c(c1)CN(C1CCC(=O)NC1=O)C2=O (stereo in doubt) [Compound 334, (S)—N-(2-((R)-2,6-dioxopiperidin-3-yl)-1-oxoisoindolin-5-yl)-2-(methoxymethyl)indoline-1-carboxamide] | 0.1 to 1 µM | 0.1 to 1 µM | < 0.1 µM | 0.1 to 1 µM | < 6.00 | 0.1 to 1 µM | 0.1 to 1 µM |  |  |  |  | 
3 | COC[C@@H]1Cc2ccccc2N1C(=O)Nc1ccc2c(c1)CN(C1CCC(=O)NC1=O)C2=O (stereo in doubt) [Compound 337, (S)—N-(2-((S)-2,6-dioxopiperidin-3-yl)-1-oxoisoindolin-5-yl)-2-(methoxymethyl)indoline-1-carboxamide] | 0.1 to 1 µM | 0.1 to 1 µM | < 0.1 µM | 0.1 to 1 µM | 6.00 to 7.00 | 0.1 to 1 µM | < 0.1 µM |  |  |  |  | 
4 | C[C@H]1Cc2ccccc2N1C(=O)Nc1ccc2c(c1)CN(C1CCC(=O)NC1=O)C2=O (stereo partly drawn) [Compound 101, (2S)—N-(2-(2,6-dioxopiperidin-3-yl)-1-oxoisoindolin-5-yl)-2-methylindoline-1-carboxamide] | < 0.1 µM | < 0.1 µM | < 0.1 µM | < 0.1 µM | 6.00 to 7.00 | < 0.1 µM | < 0.1 µM |  |  |  |  | 
5 | O=C1CCC(N2Cc3cc(NC(=O)N4CCc5ccccc54)ccc3C2=O)C(=O)N1 (centres unmarked) [Compound 103, N-(2-(2,6-dioxopiperidin-3-yl)-1-oxoisoindolin-5-yl)indoline-1-carboxamide] | 0.1 to 1 µM | < 0.1 µM | < 0.1 µM | 0.1 to 1 µM | 6.00 to 7.00 | 0.1 to 1 µM | < 0.1 µM |  |  |  |  | 
6 | O=C1CCC(N2Cc3cc(NC(=O)N4Cc5ccccc5C4)ccc3C2=O)C(=O)N1 (centres unmarked) [Compound 106, N-(2-(2,6-dioxopiperidin-3-yl)-1-oxoisoindolin-5-yl)isoindoline-2-carboxamide] | > 1 µM | 0.1 to 1 µM | < 0.1 µM | > 1 µM | 6.00 to 7.00 | 0.1 to 1 µM | 0.1 to 1 µM |  |  |  |  | 
7 | CC1(C)CN(C(=O)Nc2ccc3c(c2)CN(C2CCC(=O)NC2=O)C3=O)c2ccccc21 (centres unmarked) [Compound 124, N-(2-(2,6-dioxopiperidin-3-yl)-1-oxoisoindolin-5-yl)-3,3-dimethylindoline-1-carboxamide] |  |  | < 0.1 µM |  | 6.00 to 7.00 |  |  | < 0.1 µM | < 0.1 µM | 0.1 to 1 µM | < 0.1 µM | < 0.1 µM
8 | O=C1CCC(N2Cc3cc(NC(=O)N4CCc5c4cccc5C(F)(F)F)ccc3C2=O)C(=O)N1 (centres unmarked) [Compound 135, N-(2-(2,6-dioxopiperidin-3-yl)-1-oxoisoindolin-5-yl)-4-(trifluoromethyl)indoline-1-carboxamide] |  |  | < 0.1 µM |  | 6.00 to 7.00 |  |  | 0.1 to 1 µM | < 0.1 µM | 0.1 to 1 µM | < 0.1 µM | < 0.1 µM
9 | O=C1CCC(N2Cc3cc(NC(=O)N4CCc5ccc(Cl)cc54)ccc3C2=O)C(=O)N1 (centres unmarked) [Compound 137, 6-chloro-N-(2-(2,6-dioxopiperidin-3-yl)-1-oxoisoindolin-5-yl)indoline-1-carboxamide] |  |  | < 0.1 µM |  | 6.00 to 7.00 |  |  | 0.1 to 1 µM | 0.1 to 1 µM | 0.1 to 1 µM | < 0.1 µM | 0.1 to 1 µM
10 | N#Cc1ccc2c(c1)CCN2C(=O)Nc1ccc2c(c1)CN(C1CCC(=O)NC1=O)C2=O (centres unmarked) [Compound 142, 5-cyano-N-(2-(2,6-dioxopiperidin-3-yl)-1-oxoisoindolin-5-yl)indoline-1-carboxamide] |  |  | < 0.1 µM |  | 6.00 to 7.00 |  |  | 0.1 to 1 µM | 0.1 to 1 µM | 0.1 to 1 µM | > 1 µM | 0.1 to 1 µM
11 | N#Cc1cccc2c1CCN2C(=O)Nc1ccc2c(c1)CN(C1CCC(=O)NC1=O)C2=O (centres unmarked) [Compound 148, 4-cyano-N-(2-(2,6-dioxopiperidin-3-yl)-1-oxoisoindolin-5-yl)indoline-1-carboxamide] | 0.1 to 1 µM | 0.1 to 1 µM | < 0.1 µM | 0.1 to 1 µM | > 7.00 | 0.1 to 1 µM | 0.1 to 1 µM |  |  |  |  | 
12 | O=C1CCC(N2Cc3cc(NC(=O)N4CCc5c(C6CC6)cccc54)ccc3C2=O)C(=O)N1 (centres unmarked) [Compound 164, 4-cyclopropyl-N-(2-(2,6-dioxopiperidin-3-yl)-1-oxoisoindolin-5-yl)indoline-1-carboxamide] | < 0.1 µM | < 0.1 µM | < 0.1 µM | 0.1 to 1 µM | 6.00 to 7.00 | < 0.1 µM | < 0.1 µM |  |  |  |  | 
13 | O=C1CCC(N2Cc3cc(NC(=O)N4CCc5cc(F)ccc54)ccc3C2=O)C(=O)N1 (centres unmarked) [Compound 178, N-(2-(2,6-dioxopiperidin-3-yl)-1-oxoisoindolin-5-yl)-5-fluoroindoline-1-carboxamide] |  |  | < 0.1 µM |  | 6.00 to 7.00 |  |  | 0.1 to 1 µM | 0.1 to 1 µM | 0.1 to 1 µM | 0.1 to 1 µM | 0.1 to 1 µM
14 | O=C1CCC(N2Cc3cc(NC(=O)N4CCc5cc(C(F)(F)F)ccc54)ccc3C2=O)C(=O)N1 (centres unmarked) [Compound 185, N-(2-(2,6-dioxopiperidin-3-yl)-1-oxoisoindolin-5-yl)-5-(trifluoromethyl)indoline-1-carboxamide] |  |  | < 0.1 µM |  | 6.00 to 7.00 |  |  | 0.1 to 1 µM | 0.1 to 1 µM | 0.1 to 1 µM | 0.1 to 1 µM | 0.1 to 1 µM
15 | O=C1CCC(N2Cc3cc(NC(=O)N4CCc5ccc(F)cc54)ccc3C2=O)C(=O)N1 (centres unmarked) [Compound 186, N-(2-(2,6-dioxopiperidin-3-yl)-1-oxoisoindolin-5-yl)-6-fluoroindoline-1-carboxamide] |  |  | < 0.1 µM |  | 6.00 to 7.00 |  |  | < 0.1 µM | < 0.1 µM | < 0.1 µM | < 0.1 µM | < 0.1 µM
16 | O=C1CCC(N2Cc3cc(NC(=O)N4CC5(CCOCC5)c5ccccc54)ccc3C2=O)C(=O)N1 (centres unmarked) [Compound 189] | < 0.1 µM | < 0.1 µM | < 0.1 µM | < 0.1 µM | 6.00 to 7.00 | < 0.1 µM | < 0.1 µM |  |  |  |  | 
17 | Cc1ccc2c(c1)N(C(=O)Nc1ccc3c(c1)CN(C1CCC(=O)NC1=O)C3=O)CC2 (centres unmarked) [Compound 190, N-(2-(2,6-dioxopiperidin-3-yl)-1-oxoisoindolin-5-yl)-6-methylindoline-1-carboxamide] |  |  | < 0.1 µM |  | 6.00 to 7.00 |  |  | 0.1 to 1 µM | 0.1 to 1 µM | 0.1 to 1 µM | 0.1 to 1 µM | 0.1 to 1 µM
